Columns and labels:
[1] = 4 week Zucker fa/fa rat study, body weight; type: in vivo; settings: Zucker fa/fa rats
Procedure: Male Zucker fa/fa rats were housed one rat per cage in a temperature-controlled room with 12-hour light/dark cycle. The rats were fed on regular rodent diet (Purina 5008) and allowed ad libitum access to water. The experiment was initiated at an age of 8-9 week, and at body weight of about 350 g. Test compound was prepared in 0.5% HPMC for dosing q.d at 1 mg/kg, 3 mg/kg and 10 mg/kg, as noted in the table of results below. Body weight, food intake and fed blood glucose were monitored weekly. On day 26, all rats were given with the last dose 1 hr prior to the necropsy.

[2] = 10-day diet-induced obese C57bl/6 mice study, body weight change; type: in vivo, mouse; set-up: unit not given here; settings: DIO C57BL/6J mice, oral 30 mg/kg once a day, after 10 days of treatment
Procedure: Male DIO C57BL/6J mice from Taconic were maintained on high fat diet D12492 containing 60% kCal of mostly saturated fats (Research Diets Inc.) for 4 week from 6-week old. Test compounds were prepared in 0.5% hydroxypropyl methyl cellulose for oral dosing at 30 mg/kg once a day. After 10-days of treatment, body weight change was recorded.
Representative compounds of the present invention were tested according to the procedure as described above, with results as listed in Table 7, below. In the results presented below, * indicates a calculated p value <0.05 vs. vehicle-treated group.

Cn1cc(-c2ccc(N3CCC(N4CCc5ccc(F)cc54)CC3)nn2)cn1 [Compound #11, 6-fluoro-1-(1-(6-(1-methyl-1H-pyrazol-4-yl)pyridazin-3-yl)piperidin-4-yl)indoline]
Body Weight Day 1 ([1]; 1 mg/kg q.d.): 373 ± 7 grams
Body Weight Day 8 ([1]; 1 mg/kg q.d.): 404 ± 13 grams
Body Weight Day 15 ([1]; 1 mg/kg q.d.): 442 ± 12 grams
Body Weight Day 22 ([1]; 1 mg/kg q.d.): 482 ± 10 grams
Body Weight Day 26 ([1]; 1 mg/kg q.d.): 496 ± 10 grams
Body Weight Day 1 ([1]; 3 mg/kg q.d.): 372 ± 6 grams
Body Weight Day 8 ([1]; 3 mg/kg q.d.): 417 ± 7 grams
Body Weight Day 15 ([1]; 3 mg/kg q.d.): 452 ± 6 grams
Body Weight Day 22 ([1]; 3 mg/kg q.d.): 484 ± 6 grams
Body Weight Day 26 ([1]; 3 mg/kg q.d.): 498 ± 6 grams
Body Weight Day 1 ([1]; 10 mg/kg q.d.): 373 ± 5 grams
Body Weight Day 8 ([1]; 10 mg/kg q.d.): 402 ± 6 grams
Body Weight Day 15 ([1]; 10 mg/kg q.d.): 430 ± 7 grams
Body Weight Day 22 ([1]; 10 mg/kg q.d.): 445 ± 9 grams
Body Weight Day 26 ([1]; 10 mg/kg q.d.): 451 ± 9 grams
body weight change [2]: −2.1 ± 0.3 *

From patent publication US9102669B2, “Substituted piperidinyl-pyridazinyl derivatives useful as SCD 1 inhibitors” (Janssen Pharmaceutica NV, priority 2011, dated 2015)
